{
  "source": "patent US9255257B2",
  "about": "“PmST1 mutants for chemoenzymatic synthesis of sialyl lewis X compounds” (THE REGENTS OF THE UNIVERSITY OF CALIFORNIA, priority 2011, dated 2016)",
  "key": {"[1]": {"molecular_target": "Pasteurella multocida α2-3-sialyltransferase 1 (PmST1), wild type (WT), SEQ ID NO: 13 (Pasteurella multocida, UniProt Q15KI8)", "conditions": "apparent, acceptor, read-out: Km for LacβMU; cited from earlier work"}, "[2]": {"molecular_target": "T1, Pasteurella multocida PmST1 mutant M144H of SEQ ID NO: 13 (M120H of Δ24PmST1, SEQ ID NO: 5) (Pasteurella multocida, UniProt Q15KI8, M144H)", "assay": "α2-3-sialyltransferase activity, LacβMU as acceptor", "assay_type": "biochemical", "conditions": "apparent, acceptor, CMP-Neu5Ac 1 mM, Tris-HCl pH 8.5, 37° C.", "protocol": "(§1) Site-directed mutagenesis, expression and purification of PmST1 mutants. Site-directed mutagenesis was performed using the QuikChange multi-site-directed mutagenesis kit from Stratagene according to the manufacturer's protocol. The primers used were 5′-[…]-3′ (SEQ ID NO:35) for M144D; 5′-[…]a[…] -3′ (SEQ ID NO:36) for M144H; 5′-[…]-3′ (SEQ ID NO:37) for A35D; and 5′-[…]-3′ (SEQ ID NO:38) for A35H. The expression and purification of the mutants were performed as previously described for the WT PmST1 .\n(§2) Kinetics of the α2-3-sialyltransferase activity of PmST1 mutants by HPLC analysis. With LacβMU as the acceptor substrate, the reactions were performed in duplicate at 37° C. for 10 min (M144D) or 4 min (M144H) in a reaction mixture (10 μL) containing Tris-HCl (100 mM, pH 8.5), an enzyme (5 μg mL^−1), and different concentrations (0.2, 0.5, 1.0, 2.0, and 5.0 mM) of LacβMU with a fixed concentration (1 mM) of CMP-Neu5Ac or different concentrations (0.2, 0.5, 1.0, 2.0, 5.0, and 10.0 mM) of CMP-Neu5Ac with a fixed concentration (1 mM) of LacβMU. With Le^xβMU as the acceptor substrate, the reactions were carried out in duplicate at 37° C. for 9 min (M144D) or 10 min (M144H) in a reaction mixture (10 μL) containing CAPSO (100 mM, pH 9.5), an enzyme (M144D, 39 μg mL^−1 or M144H, 5 μg mL^−), and various concentrations of Le^xβMU (1.0, 5.0, 10.0, 15.0, 25.0, and 35.0 mM) with a fixed concentration (1 mM) of CMP-Neu5Ac or various concentrations (0.2, 0.5, 1.0, 2.0, 5.0, 10.0, 20.0, and 40.0 mM) of CMP-Neu5Ac with a fixed concentration (1 mM) of Le^xβMU. Reactions were stopped by adding 10 μL of pre-chilled ethanol. The mixtures were incubated on ice for 30 min and centrifuged at 13,000 rpm for 5 min. The supernatants were diluted with 25% acetonitrile and kept on ice until aliquots of 8 μL were injected and analyzed by the Shimadzu LC-6AD system equipped with a membrane on-line degasser, a temperature control unit, and a fluorescence detector (Shimadzu RF-10AXL). A reverse-phase Premier C18 column (250×4.6 mm i.d., 5 μm particle size, Shimadzu) protected with a C18 guard column cartridge was used. The mobile phase was 25% acetonitrile. The fluorophore (MU)-labeled compounds were detected by excitation at 325 nm and emission at 372 nm. The apparent kinetic parameters were obtained by fitting the experimental data (the average values of duplicate assay results) into the Michaelis-Menten equation using Grafit 5.0."}, "[3]": {"molecular_target": "T2, Pasteurella multocida PmST1 mutant M144D of SEQ ID NO: 13 (M120D of Δ24PmST1, SEQ ID NO: 3) (Pasteurella multocida, UniProt Q15KI8, M144D)", "assay": "α2-3-sialyltransferase activity, LacβMU as acceptor", "assay_type": "biochemical", "conditions": "apparent, acceptor, CMP-Neu5Ac 1 mM, Tris-HCl pH 8.5, 37° C.", "protocol": "as §1, §2"}, "[4]": {"molecular_target": "Pasteurella multocida PmST1 mutant E271F of SEQ ID NO: 13 (E247F of Δ24PmST1, SEQ ID NO: 7) (Pasteurella multocida, UniProt Q15KI8, E271F)", "assay": "α2-3-sialyltransferase activity, LacβMU as acceptor", "assay_type": "biochemical", "conditions": "apparent, acceptor, CMP-Neu5Ac 1 mM, Tris-HCl pH 8.5, 37° C.", "protocol": "(§3) To obtain the apparent kinetic parameters of LacβMU as the acceptor for the α2-3-sialyltransferase activity, the kinetic assays were performed in duplicate in reaction mixtures of 10 μL containing Tris-HCl buffer (100 mM, pH 8.5), a fixed concentration of CMP-Neu5Ac (1 mM), different concentrations of LacβMU (0.2, 0.5, 1.0, 2.0, 5.0, and 9.0 mM) and the mutant proteins (2 μg mL^−1 of E271F, 2 μg mL^−1 of R313Y, and 1.6 μg mL^−1 of E271F/R313Y). All reactions were allowed to proceed at 37° C. for 5 min (E271F), 7 min (R313Y), and 10 min (E271F/R313Y). The apparent kinetic parameters were obtained by fitting the experimental data (the average values of duplicate assay results) into the Michaelis-Menten equation using Grafit 5.0.\n(§4) To obtain the apparent kinetic parameters of CMP-Neu5Ac as the donor for the α2-3-sialyltransferase activity, the kinetic assays were performed in duplicate in reaction mixtures of 10 μL containing Tris-HCl buffer (100 mM, pH 8.5), a fixed concentration of LacβMU (1 mM), different concentrations of CMP-Neu5Ac (0.1, 0.2, 0.5, 1.0, 2.0, 5.0, 10.0 and 20.0 mM) and the mutant proteins (2 μg mL^−1 of E271F, 2 μg mL^−1 of R313Y, and 1.6 μg mL^−1 of E271F/R313Y). All reactions were allowed to proceed at 37° C. for 2 min (E271F), 7 min (R313Y), and 5 min (E271F/R313Y). The apparent kinetic parameters were obtained by fitting the experimental data (the average values of duplicate assay results) into the Michaelis-Menten equation using Grafit 5.0.\n(§5) All the sialidase and α2-3-sialyltransferase assays were performed in an HPLC system. Reactions were stopped by adding 10 μL of ethanol. After necessary dilutions were performed to adjust the concentrations of the fluorescent-labeled compounds, the samples were then kept on ice until aliquots of 8 μL were injected and analyzed by a Shimadzu LC-6AD system equipped with a membrane on-line degasser, a temperature control unit, and a fluorescence detector (Shimadzu RF-10AXL). A reverse-phase Premier C18 column (250×4.6 mm i.d., 5 μm particle size, Shimadzu) protected with a C18 guard column cartridge was used. The mobile phase was 25% acetonitrile. The fluorescent compounds LacβMU and Neu5Acα2-3LacβMU were detected by excitation at 325 nm and emission at 372 nm."}, "[5]": {"molecular_target": "Pasteurella multocida PmST1 double mutant E271F/R313Y of SEQ ID NO: 13 (E247F/R289Y of Δ24PmST1, SEQ ID NO: 11) (Pasteurella multocida, UniProt Q15KI8, E271F/R313Y)", "assay": "α2-3-sialyltransferase activity, LacβMU as acceptor", "assay_type": "biochemical", "conditions": "apparent, acceptor, CMP-Neu5Ac 1 mM, Tris-HCl pH 8.5, 37° C.", "protocol": "as §3, §4, §5"}, "[6]": {"molecular_target": "Pasteurella multocida PmST1 mutant R313Y of SEQ ID NO: 13 (R289Y of Δ24PmST1, SEQ ID NO: 9) (Pasteurella multocida, UniProt Q15KI8, R313Y)", "assay": "α2-3-sialyltransferase activity, LacβMU as acceptor", "assay_type": "biochemical", "conditions": "apparent, acceptor, CMP-Neu5Ac 1 mM, Tris-HCl pH 8.5, 37° C.", "protocol": "as §3, §4, §5"}, "[7]": {"molecular_target": "T1, Pasteurella multocida PmST1 mutant M144H of SEQ ID NO: 13 (M120H of Δ24PmST1, SEQ ID NO: 5)", "assay": "α2-3-sialyltransferase activity, Le^xβMU as acceptor", "assay_type": "biochemical", "conditions": "apparent, acceptor, CMP-Neu5Ac 1 mM, CAPSO pH 9.5, 37° C.", "protocol": "as §1, §2"}, "[8]": {"molecular_target": "T2, Pasteurella multocida PmST1 mutant M144D of SEQ ID NO: 13 (M120D of Δ24PmST1, SEQ ID NO: 3)", "assay": "α2-3-sialyltransferase activity, Le^xβMU as acceptor", "assay_type": "biochemical", "conditions": "apparent, acceptor, CMP-Neu5Ac 1 mM, CAPSO pH 9.5, 37° C.", "protocol": "as §1, §2"}, "[9]": {"system": "CC(=O)N[C@H]1[C@H]([C@H](O)[C@H](O)CO)O[C@@](O[C@H]2[C@@H](O)[C@@H](CO)O[C@@H](O[C@H]3[C@H](O)[C@@H](O)[C@H](Oc4ccc5c(C)cc(=O)oc5c4)O[C@@H]3CO)[C@@H]2O)(C(=O)O)C[C@@H]1O", "assay": "α2-3-sialidase activity, Neu5Acα2-3LacβMU as substrate", "assay_type": "biochemical, Pasteurella multocida", "conditions": "other: apparent, D141A, MES pH 5.5, 37° C., 60 min", "protocol": "Kinetic Assays. […] The apparent kinetic parameters were obtained by fitting the experimental data (the average values of duplicate assay results) into the Michaelis-Menten equation using Grafit 5.0.\nas §5"}, "[10]": {"system": "CC(=O)N[C@H]1[C@H]([C@H](O)[C@H](O)CO)O[C@](OP(=O)(O)OC[C@H]2O[C@@H](n3ccc(N)nc3=O)[C@H](O)[C@@H]2O)(C(=O)O)C[C@@H]1O", "assay": "purified protein, by the assay type", "conditions": "other: apparent, donor hydrolysis, D141A, Tris-HCl pH 8.5, 37° C., 40 min", "method": "The reactions were stopped by adding 10 μL of pre-chilled ethanol. The mixtures were incubated on ice for 30 min and centrifuged at 13,000 rpm for 5 min. The supernatants were diluted with borate buffer (25 mM, pH 9.5) and aliquotes of 5 μL each were injected to a Beckman Coulter P/ACE™ MDQ Capillary Electrophoresis system equipped with a capillary (60 cm×75 μm i.d.) and monitored at 254 nm. The apparent kinetic parameters were obtained by fitting the experimental data (the average values of duplicate assay results) into the Michaelis-Menten equation using Grafit 5.0."}},
  "data": [
    {"molecule": "Cc1cc(=O)oc2cc(O[C@@H]3O[C@H](CO)[C@@H](O[C@@H]4O[C@H](CO)[C@H](O)[C@H](O)[C@H]4O)[C@H](O)[C@H]3O)ccc12", "note": "[LacβMU, 4-methylumbelliferyl β-lactoside]", "values": [
      {"measurement": "Km", "setting": "[1]", "result": 1400, "unit": "µM"},
      {"measurement": "kcat (LacβMU)", "setting": "[2]", "result": "21 ± 1", "unit": "s⁻¹"},
      {"measurement": "kcat (LacβMU)", "setting": "[3]", "result": "22 ± 1", "unit": "s⁻¹"},
      {"measurement": "kcat (LacβMU)", "setting": "[4]", "result": "28 ± 1", "unit": "s⁻¹"},
      {"measurement": "kcat (LacβMU)", "setting": "[5]", "result": "17 ± 1", "unit": "s⁻¹"},
      {"measurement": "kcat (LacβMU)", "setting": "[6]", "result": "19 ± 1", "unit": "s⁻¹"}
    ]},
    {"molecule": "CC(=O)N[C@H]1[C@H](Oc2ccc3c(C)cc(=O)oc3c2)O[C@H](CO)[C@@H](O[C@@H]2O[C@H](CO)[C@H](O)[C@H](O)[C@H]2O)[C@@H]1O[C@@H]1O[C@@H](C)[C@@H](O)[C@@H](O)[C@@H]1O", "note": "[Le^xβMU, 4-methylumbelliferyl β-Le^x]", "values": [
      {"measurement": "kcat (Le^xβMU)", "setting": "[7]", "result": "8.4 ± 0.3", "unit": "s⁻¹"},
      {"measurement": "kcat (Le^xβMU)", "setting": "[8]", "result": "4.0 ± 0.2", "unit": "s⁻¹"}
    ]},
    {"molecule": "Pasteurella multocida PmST1 mutant D141A (Pasteurella multocida; D141A)", "values": [
      {"measurement": "Km", "setting": "[9]", "result": "15000 ± 1000", "unit": "µM"},
      {"measurement": "Km", "setting": "[10]", "result": "1400 ± 200", "unit": "µM"}
    ]}
  ]
}
